Among the test systems are A498 renal; HCT-116 colon; LOX IMVI melanoma; OVCAR-5 ovarian; PC-3 prostate; SK-MEL-5 melanoma; T-47D breast.
Assay in all cases: inhibition of tumour cell growth, NCI panel, 48 h

Molecules are shown by their SMILES.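 Method: 48-hour compound exposure of cells in 96-well plates, five concentrations, linear interpolation of endpoints. GI50 marks 50% less growth. Definition used: TGI = concentration required for complete inhibition of growth.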

Our source for the TGI and GI50 values is PubChem BioAssay (NCI).

With `CCCNC1=C2CC(C)CC(OC)[C@@H](O)[C@H](C)/C=C(\C)C(OC(N)=O)C(OC)/C=C\C=C(/C)C(=O)NC(=CC1=O)C2=O` (stereo not given in full), the TGI was 9.55 µM with A498 renal; over 100 µM in the experiment with HCT-116 colon; 0.614 µM in the experiment on LOX IMVI melanoma; over 100 µM with PC-3 prostate; 18.3 µM with SK-MEL-5 melanoma; 35 µM in the experiment with T-47D breast. Moreover, the GI50 in the experiment on HCT-116 colon is 0.0589 µM; in the experiment with LOX IMVI melanoma, 0.0466 µM; with OVCAR-5 ovarian it was 13.3 µM; in the experiment on PC-3 prostate, 0.477 µM; in the experiment with SK-MEL-5 melanoma, 0.0343 µM; in the experiment on T-47D breast, 1.15 µM.

In the case of `CC[C@@]1(O)C(=O)OCc2c1cc1n(c2=O)Cc2c-1nc1ccccc1c2/C=N\NC(=O)CN`, the TGI is 3.76 µM with A498 renal; 16.1 µM with HCT-116 colon; 1.36 µM with LOX IMVI melanoma; over 100 µM with OVCAR-5 ovarian; over 100 µM in the experiment with PC-3 prostate; 1.88 µM with SK-MEL-5 melanoma. This compound yielded a TGI with T-47D breast of over 20.3 µM.

For the compound `NC(=O)C(c1ccccc1)N1OC2C(=O)N(c3ccccc3)C(=O)C2C1c1c2ccccc2c(Cl)c2ccccc12` (stereo not given), the TGI in the experiment with HCT-116 colon, in the experiment with LOX IMVI melanoma, in the experiment on OVCAR-5 ovarian, in the experiment on PC-3 prostate, with SK-MEL-5 melanoma and in the experiment with T-47D breast was over 100 µM throughout.

For `O=C(O)CN(CC(=O)O)C1CCCCC1N(CC(=O)O)CC(=O)NCCN=C=S` (stereo not given), the TGI in the experiment on A498 renal, with HCT-116 colon, with LOX IMVI melanoma, in the experiment on OVCAR-5 ovarian, with PC-3 prostate and in the experiment with SK-MEL-5 melanoma was over 100 µM each time. The TGI in the experiment with T-47D breast is over 100 µM.

For the compound `COc1cc(/C=C/C(=N\NS(=O)(=O)c2ccc(C)cc2)c2sc(NNC(C)=O)nc2C)ccc1O`, the TGI with A498 renal, in the experiment with HCT-116 colon, in the experiment on LOX IMVI melanoma, in the experiment on OVCAR-5 ovarian, in the experiment on PC-3 prostate and in the experiment on SK-MEL-5 melanoma was over 100 µM in each case. Also, in the experiment with T-47D breast, the TGI is over 100 µM.

In the case of `C=C1c2nc3ccccc3n2C=C(c2ccccc2)N1c1ccc([N+](=O)[O-])cc1`, the TGI with A498 renal is 42 µM; in the experiment on HCT-116 colon, 35.2 µM; with LOX IMVI melanoma, over 100 µM; in the experiment with OVCAR-5 ovarian it was 40.7 µM; in the experiment on PC-3 prostate, 68.2 µM; in the experiment with SK-MEL-5 melanoma it was 40.8 µM. For the same compound, the TGI in the experiment with T-47D breast was over 53.5 µM.

`O=C1OCC(O)=C1C(c1ccc(Cl)cc1)c1cc2c(cc1O)OCO2` (stereo not given): the TGI with A498 renal, in the experiment on HCT-116 colon, in the experiment with LOX IMVI melanoma, with OVCAR-5 ovarian, in the experiment with PC-3 prostate and in the experiment on SK-MEL-5 melanoma was over 100 µM in each case.

With `C=C(Br)C(C)(Cl)CCC(Br)C(C)(C)Cl` (stereo not given), the TGI in the experiment on A498 renal was over 100 µM; in the experiment on HCT-116 colon it was over 100 µM; in the experiment with LOX IMVI melanoma, 38 µM; in the experiment on OVCAR-5 ovarian it was over 100 µM; with PC-3 prostate it was over 100 µM; in the experiment with SK-MEL-5 melanoma, over 100 µM. In addition, in the experiment on T-47D breast, the TGI is over 100 µM.

Consider `COc1ccc(CNc2nc(NCc3ccc(OC)c(OC)c3)nc(NC3CCCCC3)n2)cc1`, for which the TGI with HCT-116 colon was over 100 µM; with LOX IMVI melanoma it was over 100 µM; in the experiment with OVCAR-5 ovarian it was over 100 µM; with PC-3 prostate, over 100 µM; in the experiment on SK-MEL-5 melanoma it was 7.41 µM; with T-47D breast, over 100 µM.

With `O=C1C(=Cc2ccc(O)cc2)N=C(c2ccccc2)N1n1c(-c2ccccc2)nc2ccccc2c1=O`, the TGI in the experiment on HCT-116 colon, in the experiment on LOX IMVI melanoma, in the experiment with PC-3 prostate, in the experiment on SK-MEL-5 melanoma and with T-47D breast was over 100 µM throughout.

On to `CC(=O)O[C@H]1C(=O)[C@]2(C)[C@@H](OC(=O)OCCC(O)CO)C[C@H]3OC[C@@]3(OC(C)=O)[C@H]2[C@H](OC(=O)c2ccccc2)[C@]2(O)C[C@H](OC(=O)[C@H](O)[C@@H](NC(=O)c3ccccc3)c3ccccc3)C(C)=C1C2(C)C` (stereo not given in full), for which the TGI in the experiment on A498 renal is 21.6 µM; with HCT-116 colon, 5.65 µM; with LOX IMVI melanoma, 20.4 µM; in the experiment on OVCAR-5 ovarian it was over 36.6 µM; in the experiment with PC-3 prostate, over 36.2 µM; in the experiment on SK-MEL-5 melanoma it was 13.1 µM.

`O=c1[nH]cc(N=Cc2cc(Cl)cc(Cl)c2O)c(=O)[nH]1`: the TGI is over 100 µM in the experiment with A498 renal; 43.3 µM in the experiment with HCT-116 colon; over 100 µM in the experiment on OVCAR-5 ovarian; 98.3 µM with PC-3 prostate; 42.6 µM in the experiment with SK-MEL-5 melanoma; 66.2 µM in the experiment on T-47D breast.

For `CC[C@@]1(C[C@H]2C[C@@]3(C(=O)OC)c4[nH]c5ccccc5c4CCN3C2=O)COC2(CCCCC2)O1`, the TGI in the experiment with HCT-116 colon is over 100 µM; with LOX IMVI melanoma, over 100 µM; with OVCAR-5 ovarian it was over 100 µM; with PC-3 prostate it was over 100 µM; in the experiment on SK-MEL-5 melanoma, 41.2 µM; with T-47D breast, over 100 µM.

For `Cc1cn(C2CC(n3cc(Cn4cc(I)c(=O)[nH]c4=O)nn3)C(CO)O2)c(=O)[nH]c1=O` (stereo not given), the TGI in the experiment on A498 renal, in the experiment with HCT-116 colon, in the experiment with OVCAR-5 ovarian, in the experiment with PC-3 prostate, in the experiment on SK-MEL-5 melanoma and in the experiment with T-47D breast was over 100 µM throughout.

In the case of `Cc1cc(O)c2c(=O)c3ccccc3[nH]c2c1`, the TGI is 82.6 µM in the experiment with A498 renal; 65.2 µM in the experiment on HCT-116 colon; 64.3 µM in the experiment on LOX IMVI melanoma; over 100 µM in the experiment on OVCAR-5 ovarian; 77.3 µM in the experiment on PC-3 prostate; 31.1 µM in the experiment with SK-MEL-5 melanoma.

For `CC1(C)N=C(/C(Cl)=[N+](/[O-])C(=O)c2ccc(F)cc2)C(C)(C)N1O`, the TGI in the experiment on HCT-116 colon came out at 30.6 µM; with LOX IMVI melanoma it was 24.3 µM; with OVCAR-5 ovarian, 36.1 µM; in the experiment on PC-3 prostate, 31.3 µM; in the experiment on SK-MEL-5 melanoma, 30.4 µM; with T-47D breast, 58.5 µM.

Regarding `CCOC(=O)N1CCC2(CC1)C[C@](C)(C(C)=O)C(C)O2` (stereo not given in full), the TGI in the experiment with A498 renal, in the experiment on LOX IMVI melanoma, in the experiment with OVCAR-5 ovarian, in the experiment on PC-3 prostate and in the experiment with SK-MEL-5 melanoma was over 100 µM throughout.

In the case of `COc1ccc(N2C(=O)C3c4[nH]c5ccccc5c4C4CCC(C(C)(C)C)CC4C3C2=O)c(C)c1` (stereo not given), the TGI with HCT-116 colon, in the experiment on PC-3 prostate, with SK-MEL-5 melanoma and in the experiment with T-47D breast was over 100 µM in each case.

Consider `FC(F)(F)c1cc(Cl)cnc1N/N=C(/c1ccccc1)c1ccccn1`, for which the TGI in the experiment with HCT-116 colon is 19.2 µM; in the experiment with OVCAR-5 ovarian, 33.4 µM; with PC-3 prostate, 89.7 µM; in the experiment on SK-MEL-5 melanoma, over 100 µM.

As to `c1ccc(N=C2SC3=Nc4cccc5cccc(c45)N3C2=Nc2ccccc2)cc1`, the TGI in the experiment with A498 renal, in the experiment on OVCAR-5 ovarian, in the experiment on PC-3 prostate, in the experiment with SK-MEL-5 melanoma and in the experiment on T-47D breast was over 100 µM each time.

For `COc1cc2c(cc1OC)C(c1ccccc1CCCCl)=NCC2`, the TGI is over 100 µM in the experiment with A498 renal; over 100 µM in the experiment with HCT-116 colon; over 100 µM in the experiment on OVCAR-5 ovarian; over 100 µM in the experiment with PC-3 prostate; 47.2 µM in the experiment with SK-MEL-5 melanoma; over 100 µM in the experiment on T-47D breast.

`COC(=O)[C@H](Cc1c[nH]c2ccccc12)NP(=O)(O)OCC1C=CC(n2cc(C)c(=O)[nH]c2=O)O1` (stereo not given in full): the TGI with A498 renal, in the experiment on HCT-116 colon, in the experiment with LOX IMVI melanoma, with PC-3 prostate, with SK-MEL-5 melanoma and in the experiment with T-47D breast was over 100 µM throughout.

On to `COc1cc([C@@H]2c3cc4c(cc3[C@@H](Nc3ccc([N+](=O)[O-])cc3C(=O)c3ccccc3)[C@H]3COC(=O)[C@H]23)OCO4)cc(OC)c1OC`, for which the TGI in the experiment on A498 renal, with HCT-116 colon, in the experiment with LOX IMVI melanoma, in the experiment on OVCAR-5 ovarian, in the experiment on PC-3 prostate and in the experiment with T-47D breast was over 100 µM each time.

As for `Clc1ccc(/C=C/c2nc3ccccc3s2)cc1Cl`, the TGI was 63.8 µM with HCT-116 colon; 3.12 µM with LOX IMVI melanoma; over 100 µM in the experiment with OVCAR-5 ovarian; 3.66 µM in the experiment on PC-3 prostate; over 100 µM in the experiment on SK-MEL-5 melanoma; 9.77 µM with T-47D breast.

Regarding `O=C(NNC(=O)c1ccccc1SSc1ccccc1C(=O)NNC(=O)c1ccccc1S)c1ccccc1S`, the TGI in the experiment with HCT-116 colon was over 65.1 µM; with LOX IMVI melanoma, over 100 µM; in the experiment on OVCAR-5 ovarian, over 100 µM; with PC-3 prostate, over 74.9 µM; in the experiment with SK-MEL-5 melanoma, over 100 µM; in the experiment on T-47D breast it was over 27.8 µM.

Turning to `COc1cc(/C=C2\S/C(=N/Nc3nc(-c4ccc(Br)cc4)cs3)NC2=O)cc(OC)c1OC`, the TGI in the experiment with HCT-116 colon came to 17.2 µM; in the experiment with LOX IMVI melanoma it was 33.2 µM; in the experiment with OVCAR-5 ovarian, 83.1 µM; in the experiment on PC-3 prostate, 18.6 µM; in the experiment on SK-MEL-5 melanoma, 20.2 µM.

Turning to `Cc1cn(C2CC(N(O)C(N)=O)C(CO)O2)c(=O)[nH]c1=O` (stereo not given), the TGI in the experiment with A498 renal, in the experiment with HCT-116 colon, with OVCAR-5 ovarian, with PC-3 prostate, in the experiment with SK-MEL-5 melanoma and in the experiment with T-47D breast was over 100 µM throughout.
